# Assay results as given in ChEMBL document CHEMBL2073830, “A novel inhibitor of the mammalian peptide transporter PEPT1” (Biochemistry, 2001).
# pKi: −log10 of the molar value. Non-standard residues stand in square brackets, D forms with d. Residues, ends and D or L forms follow the SMILES beside them. *: point of attachment. Cbz = O=C(OCc1ccccc1)*
# Target: T1, Solute carrier family 15 member 1 (Homo sapiens, UniProt P46059)
# T1 sequence (P46059 whole entry): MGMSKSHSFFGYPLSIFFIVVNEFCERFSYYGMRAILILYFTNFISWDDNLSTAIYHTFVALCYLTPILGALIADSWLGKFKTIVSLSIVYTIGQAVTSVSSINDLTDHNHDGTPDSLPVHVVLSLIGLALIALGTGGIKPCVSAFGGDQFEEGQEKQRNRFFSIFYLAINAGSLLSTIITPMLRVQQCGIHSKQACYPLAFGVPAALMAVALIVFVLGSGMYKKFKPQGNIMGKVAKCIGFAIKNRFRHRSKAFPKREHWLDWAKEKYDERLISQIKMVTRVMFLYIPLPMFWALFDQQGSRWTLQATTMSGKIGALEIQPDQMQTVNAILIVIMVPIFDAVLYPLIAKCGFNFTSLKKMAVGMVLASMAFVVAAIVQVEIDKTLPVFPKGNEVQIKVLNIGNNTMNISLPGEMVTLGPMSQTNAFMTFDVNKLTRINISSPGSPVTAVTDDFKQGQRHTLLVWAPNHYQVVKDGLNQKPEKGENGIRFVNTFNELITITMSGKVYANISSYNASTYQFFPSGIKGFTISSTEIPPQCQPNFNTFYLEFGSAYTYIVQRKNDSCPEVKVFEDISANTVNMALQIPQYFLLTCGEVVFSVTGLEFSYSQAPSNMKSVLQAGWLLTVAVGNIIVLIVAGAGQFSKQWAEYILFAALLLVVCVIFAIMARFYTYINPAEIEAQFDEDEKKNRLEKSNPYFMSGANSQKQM
# Assay: TP_TRANSPORTER: inhibition of Gly-Sar uptake in Caco-2 cells
# Assay type: functional, cell-based
row,Compound,pKi
1,N[C@@H](CCCCNC(=O)OCc1ccc([N+](=O)[O-])cc1)C(=O)N1CCC[C@H]1C(=O)O,4.72
2,NCCCC[C@H](NC(=O)OCc1ccccc1)C(=O)N1CCC[C@H]1C(=O)O (Cbz-Lys-Pro-OH),4.48
3,NCCCC[C@H](N)C(=O)N1CCC[C@@H]1C(=O)O (H-Lys-[dP]-OH),3.46
